Ten molecules from US6903104B2, “Indol-3-YL-2-oxoacetamide compounds and methods of use thereof” (National Health Research Institutes, priority 2001, dated 2005) can be followed below.

Broadly, the IC50 is the point on the concentration scale where inhibition reaches its midpoint.

The test system of experiment [1] is rat aorta endothelial cells. In words: Rat aorta tube formation assay (angiogenesis inhibition). The class given is cell-based, Spraque-Dawley rats. The arrangement: key: Noninhibitors are indicated by the symbol (−), meaning that the extent of endothelial cell growth is essentially at the same level as that of the control; The most potent inhibitors receive a score of (+++++), indicating essentially no measurable endothelial cell growth. Particulars: 5 days. The procedure:
The procedures are modified from previous reports (Burbridge and West 2001; Bauer et al. 2000; Nicosai and Ottinetti 1990a) and described as follows. Male Spraque-Dawley rats of 6-8 weeks old are purchased from the National Laboratory Animal Breeding and Research Center (Taipei, Taiwan). The animals are anesthetized with urethane (2 g/kg, intraperitoneal) and the thoracic aortas are quickly harvested in a laminar flow hood. The aortas are rinsed with ice-cold normal saline with 10 μg/ml gentamicin and the attached fibroadipose tissues are removed using micro-dissection scissors. The aortas are cross-sectioned into rings of 1 mm in thickness. A mixture of Matrigel®, purchased from BD Biosciences, solution and the EBM-II medium, purchased from BioWhittaker Inc., (1:1) with 2% FBS, 0.25 mg/ml, amphotericin B and 10 μg/ml gentamicin is prepared and added at 100 μl to each well of a 48-well plate. The mixture is allowed to gel at 37° C. Aorta rings are then placed onto the gelled matrix and embedded in an additional 150 μl per well of the mixture solution and allowed to gel at 37° C. The aorta rings are then covered with 125 μl of the EGM-II medium and incubated overnight in humidified incubator with 5% CO2/95% air at 37° C. After removal of the EGM-II from the established aorta cultures, the compound-containing media are applied at 300 μl per well to the cultures and then incubated in 5% CO2/95% air at 37° C. for 5 days. The cultures are then subject to the 3-[4,5-dimethylthiazol-2-yl]-2,5 diphenyl-2H-tetrazolium bromide (MTT) or 3-(4,5-dimethylthiazol-2-yl)-5-(3-carbomethoxyphenyl)-2H-tetrazolium (MTS) assay and OD490 nm values measured. The testing compounds are dissolved in dimethyl sulfoxide (DMSO) and prepared in EBM-II media with at a final concentration of DMSO less than 0.1%.
The capillary-like, tube structure of the outgrown rat aorta endothelial cells is easily visualized by MTT staining. The medium on top of the matrix is removed from the established aorta ring cultures. MTT solution of 5 mg/ml in saline is added to the cultures at 100 μl/well and the cultures are incubated in a CO2 incubator at 37° C. for 24 hr. The stained cultures are then examined under a microscope DMIRB from Leica and photos taken with a digital camera.
Inhibition activity is also assessed in the following manner. The reductive reaction of MTS initiated by the viable cellular mitochondrial activity is used as a basis for the measurement of cell viability (Cory et al. 1991; Gieni et al. 1995). To the rat aorta ring cultures 300 μl of a solution containing 100 μg MTS and 1 μg, phenazine methosulfate is added per well and incubated in 5% CO2/95% air at 37° C. for 24 hr. During the incubation, MTS is converted to formazan product. At the end of incubation, the solution overlaying the gel is well-mixed and 100 μl aliquots are transferred into a 96-well plate for measurement of OD490 nm with a spectrophotometer VICTOR™-II from Wallac Oy.
The compounds listed in Table 3 are screened for angiogenesis inhibition. The control compound, ASTA, is D-24851, N-[pyridin-4-yl]-[1-(4-chlorobenzyl)-indol-3-yl]-glyoxylic acid amide. Noninhibitors are indicated by the symbol (−), meaning that the extent of endothelial cell growth is essentially at the same level as that of the control.

In experiment [2] the test system is colorectal DLD1 cancer cells. Put plainly: In vitro cytotoxicity MTS assay, colorectal DLD1. The class given is cell-based, human. Particulars: 72 hours. The procedure:
(§1) A panel of human cancer cells, gastric NUGC3 and HR, nasopharyngeal HONE1, hepatocellular HEP G2 and HA-22T, colorectal DLD1, lung A549, prostate PC3, breast MCF7 and its adriamycin-resistant MCF7/ADR subline, uterus MES-SA and its adriamycin-resistant MES-SA/Dx5 subline, is purchased from Food Industry Research and Development Institute, Hsinchu, Taiwan R.O.C. or American Type Culture Collection, Manassas, Va. U.S.A., are used in in vitro cytotoxicity assays. The human cells are seeded at a cell density of 3000 or 4500 cells/100 μl/well in 96-well flat-bottom plates and incubated for 24 hours at 37° C. in a 5% CO2 incubator. The testing compounds are dissolved in dimethyl sulfoxide (DMSO) and further diluted into the culture medium for treatments of human cancer cells in vitro. The drug-containing media has a final DMSO concentration of ≦0.3%. The compounds of this invention are prepared in culture media for testing at a range of concentrations from 10, 1, 0.1, 0.01 to 0.001 μM. Each compound solution is (200 μl/well in duplicate) in the cell plates and is treated for 72 hours at 37° C., 5% CO2 in an incubator. Actinomycin D at 5 μM and 0.3% DMSO are used as the positive and vehicle controls, respectively. A colorimetric assay using 3-(4,5-dimethylthiazol-2-yl)-5-(3-carboxymethoxyphenyl)-2-(4-sulfophenyl)-2H-tetrazolium (MTS) and phenazine methosulfate (PMS) is used to determine the potency of the compounds. This assay measures cell viability based on the cellular activity in conversion of a tetrazolium salt into a colored soluble formazan product. The optical density (OD) values are measured at 490 nm with a 1420 multilabel counter VICTOR® from Wallac, Turku, Finland. All of the measured values are subtracted with that of the blank control wells without cells before further calculations. The efficacy data are expressed as a percentage normalized to the vehicle controls as calculated in the following formulae. Inhibitory potency (% of vehicle control)=[(OD490compound−OD490blank)/(OD490vehicle−OD490blank)]×100%. The concentration (IC50) of a test compound that inhibits 50% of the cellular activity is determined.
A general note: Tetrazolium assays rely on reduction of a dye to a coloured formazan, in cell work by metabolically active cells.

For experiment [3], the system named is adriamycin-resistant MCF7/ADR subline. Put plainly: In vitro cytotoxicity MTS assay, adriamycin-resistant MCF7/ADR. It counts as cell-based, human. The settings on record: 72 hours. The procedure:
as §1

In experiment [4] the test system is hepatocellular HEP G2 cancer cells. Put plainly: In vitro cytotoxicity MTS assay, hepatocellular HEP G2. The class given is cell-based, human. Particulars: 72 hours. The procedure:
as §1

Experiment [5] has as its system nasopharyngeal HONE1 cancer cells. Put plainly: In vitro cytotoxicity MTS assay, nasopharyngeal HONE1. The class given is cell-based, human. Particulars: 72 hours. The procedure: as §1
In experiment [6] the test system is gastric NUGC3 cancer cells. Put plainly: In vitro cytotoxicity MTS assay, gastric NUGC3. Particulars: 72 hours. The class given is cell-based, human. The procedure: as §1
For a further experiment, the system named is gastric HR cancer cells. In words: In vitro cytotoxicity MTS assay, gastric HR. The class given is cell-based, human. Particulars: 72 hours. The protocol: as §1
The test system of the next experiment is breast MCF7 cancer cells. Put plainly: In vitro cytotoxicity MTS assay, breast MCF7. It counts as cell-based, human. Particulars: 72 hours. The procedure: as §1
In experiment [7] the test system is hepatocellular HA-22T cancer cells. In words: In vitro cytotoxicity MTS assay, hepatocellular HA-22T. It counts as cell-based, human. Particulars: 72 hours. The procedure:
as §1

Experiment [8] concerns murine leukemic P388 cells. In words: In vivo anticancer activity, murine leukemic P388 model. The arrangement: species or system DBA/2J mice. The settings on record: for increase of life span: P.O., daily, 4×. The procedure:
The in vivo anticancer activities of the compounds are evaluated by the following murine leukemic P388 model. Inbred female DBA/2J mice of 4-5 week-old were purchased from the Charles River Laboratories Inc., Wilmington, Mass., USA and the National Laboratory Animals Breeding and Research Center, Taipei, Taiwan, ROC. Murine leukemic P388 cells are purchased from the Japanese Collection of Research Bioresources, Japan. P388 cells are cultured and propagated in RPMI1640 medium supplemented with 50 μM 2-mercaptoethanol and 10% fetal bovine serum. Mice at the age of 6 weeks were grouped as the treatment, negative control and positive control groups at 7 to 8 mice per group. All mice are intravenously inoculated with the P388 cells at one million per mouse one day before the treatments initiated. Compounds of this invention are dissolved in dimethyl sulfoxide (DMSO) and then diluted in 0.5% carboxymethyl cellulose with the final concentration of DMSO less than 0.5%. Different treatment groups are orally given (P.O.), respectively, with compounds of different doses for a pharmacological dose-response relationship. Mice of the negative control group are treated with the dosing vehicle, 0.5% carboxymethyl cellulose. Doxorubicin of the maximal tolerated dose, 10 mg/kg, is given intravenously as an experimental positive control. The cancer cell-inoculated animals are monitored twice daily. The time on which 50% of the P388-inoculated mice is still surviving is defined as the medium survival time and is used to calculate the percentage (normalized to the medium survival time of the control group) of increased in life span after treatment, which is then served as the index of treatment response.

Bounds are passed on as bounds.

For `N#Cc1ccc(Cn2cc(C(=O)C(=O)Nc3ccc(I)cc3)c3ccccc32)cc1` [Compound 13], the “Inhibition Score” value in experiment [1] (final conc. 0.3 μg/ml) is “+++++”. In addition, the concentration for half-maximal inhibition (IC50) in experiment [2] is 846 nM; in [3], 597 nM; in experiment [4] it was 6310 nM; in experiment [5] it was 98 nM; in [6], 431 nM; in the experiment with gastric HR cancer cells, 396 nM. In addition, the IC50 with breast MCF7 cancer cells worked out at 577 nM; in [7], 356 nM.
As for `Cc1cc(NC(=O)C(=O)c2cn(Cc3ccc(C#N)cc3)c3ccc(Br)cc23)sn1` [Compound 24], the “Inhibition Score” value in [1] (final conc. 0.3 μg/ml) is listed as “−”. The IC50 in experiment [2] worked out at 5800 nM; in experiment [3], 2550 nM; in experiment [4], 3590 nM; in experiment [5], 401 nM; in experiment [6], 1720 nM; with gastric HR cancer cells it was 5460 nM. The IC50 in the experiment on breast MCF7 cancer cells came to 7650 nM; in experiment [7], 2840 nM.
As to `Cc1cc(Cn2cc(C(=O)C(=O)Nc3ccc(Br)cc3)c3ccccc32)on1` [Compound 62], the half-maximal inhibitory concentration (IC50) in experiment [2] stood at 651 nM; in experiment [3] it was 509 nM; in [4], 6810 nM; in [5], 42 nM; in [6], 137 nM; in the experiment with gastric HR cancer cells, 300 nM. Further, the figures for the IC50 (with breast MCF7 cancer cells; in experiment [7]) were 872 nM and 148 nM, respectively.
In the case of `O=C(Nc1ccc2ncccc2c1)C(=O)c1cn(Cc2cscn2)c2ccccc12` [Compound 77], in experiment [1] (final conc. 0.3 μg/ml), the “Inhibition Score” value is given as “+++++”. Besides, the IC50 is 1500 nM in [2]; 595 nM in experiment [3]; more than 10000 nM in experiment [4]; 380 nM in experiment [5]; 458 nM in experiment [6]; 721 nM with gastric HR cancer cells. For the same molecule, the results for the IC50 (in the experiment on breast MCF7 cancer cells; in [7]) were 1320 nM and 469 nM, respectively.
In the case of `O=C(Nc1ccc2ncccc2c1)C(=O)c1cn(Cc2ccsc2)c2ccccc12` [Compound 48], the IC50 in [2] was found to be 1430 nM; in [3], 371 nM; in experiment [4], 4130 nM; in [5] it was 217 nM; in experiment [6], 206 nM; in the experiment with gastric HR cancer cells it was 552 nM. Moreover, the results for the IC50 (with breast MCF7 cancer cells; in experiment [7]) were 915 nM and 303 nM, respectively. Further, the “increase of life span” value in [8] (25 mg/kg, P388-inoculated mice) is 25%; in [8] (50 mg/kg, P388-inoculated mice), 60%; in experiment [8] (100 mg/kg, P388-inoculated mice), 25%; in [8] (150 mg/kg, P388-inoculated mice) it was 68 ± 25%; in experiment [8] (200 mg/kg, P388-inoculated mice) it was 63%; in experiment [8] (400 mg/kg, P388-inoculated mice), 229%. Further, the “activity in the increase of life span (dose-response)” value in experiment [8] (oral, P388-inoculated mice) is given as “dose-dependent activity”.
Regarding `N#Cc1ccc(Cn2cc(C(=O)C(=O)NCCCCCCOc3ccc(Cl)cc3)c3ccccc32)cc1` [Compound 43], the 50% inhibitory concentration (IC50) in [2] amounted to 534 nM; in [3] it was 412 nM; in [4], 713 nM; in experiment [5] it was 31 nM; in [6] it was 134 nM; in the experiment with gastric HR cancer cells, 291 nM. In addition, the IC50 was 856 nM in the experiment on breast MCF7 cancer cells and 200 nM in experiment [7].
Take `COc1cccc2c1C(=O)c1c(O)c3c(c(O)c1C2=O)C[C@@](O)(C(=O)CO)C[C@@H]3O[C@H]1C[C@H](N)[C@H](O)[C@H](C)O1` [doxorubicin, reference compound]: the “increased of life span” value in experiment [8] (maximal tolerated dose, 10 mg/kg, intravenously, mean±sd) stood at 119±18%.
Turning to `COc1ccc(NC(=O)C(=O)c2cn(Cc3ccsc3)c3ccccc23)cc1` [Compound 50], the half-maximal inhibitory concentration (IC50) in experiment [2] came out at 734 nM; in experiment [3] it was 406 nM; in [4], 1320 nM; in [5], 38 nM; in experiment [6] it was 37 nM; with gastric HR cancer cells it was 128 nM. For the same molecule, the IC50 came to 171 nM in the experiment on breast MCF7 cancer cells and 46 nM in experiment [7].
For the molecule `Cc1cc(NC(=O)C(=O)c2cn(Cc3cccs3)c3ccccc23)sn1` [Compound 44], the “Inhibition Score” value in [1] (final conc. 1 μg/ml) is “+++++”.
As to `N#Cc1ccc(Cn2cc(C(=O)C(=O)Nc3cc(-c4ccc(Cl)cc4)no3)c3ccccc32)cc1` [Compound 30], the concentration for half-maximal inhibition (IC50) in experiment [2] amounted to 926 nM; in experiment [3] it was 847 nM; in experiment [4] it was 953 nM; in experiment [5], 332 nM; in [6], 639 nM; in the experiment with gastric HR cancer cells, 739 nM. Also, the IC50 in the experiment with breast MCF7 cancer cells turned out to be 920 nM; in experiment [7] it was 558 nM.
